Data from PubChem BioAssay (NCI).
Values joined by “and” are separate entries in the source; they are usually repeats but may differ in a detail not shown here. Equal values may be shown once.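 Tested at 5 concentrations; 48 h exposure; 96-well plates; endpoints linearly interpolated, else capped at highest concentration. Here, GI50 denotes the concentration required for 50% inhibition of growth. TGI: total growth inhibition.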

How the values were obtained:
Assay in all cases: growth of human tumour cells (NCI), 48 h
NCI-H226 lung = tested on: NCI-H226 lung
COLO 205 colon = tested on: COLO 205 colon
SK-MEL-28 melanoma = tested on: SK-MEL-28 melanoma
UO-31 renal = tested on: UO-31 renal
SF-268 CNS = tested on: SF-268 CNS
786-0 renal = tested on: 786-0 renal
HCT-116 colon = tested on: HCT-116 colon
HL-60(TB) leukemia = tested on: HL-60(TB) leukemia
NCI/ADR-RES ovarian = tested on: NCI/ADR-RES ovarian
EKVX NSCLC = tested on: EKVX NSCLC

Row | SMILES | TGI (NCI-H226 lung) | TGI (COLO 205 colon) | TGI (SK-MEL-28 melanoma) | TGI (UO-31 renal) | TGI (SF-268 CNS) | TGI (786-0 renal) | TGI (HCT-116 colon) | TGI (HL-60(TB) leukemia) | TGI (NCI/ADR-RES ovarian) | TGI (EKVX NSCLC) | GI50 (EKVX NSCLC) | GI50 (NCI-H226 lung)
1 | O=c1cc(-c2ccccc2)[nH]c2c(F)ccc(F)c12 | > 100 µM | > 100 µM | > 100 µM | > 100 µM | > 100 µM | > 100 µM | > 100 µM | > 100 µM |  |  |  | 
2 | O=c1[nH]c(=O)c2c([nH]1)[nH]c1ccccc12 | > 100 µM | > 100 µM |  | > 100 µM | > 100 µM | > 100 µM | > 100 µM |  | > 100 µM | > 100 µM |  | 
3 | CCC(C)Cn1c(C)nc2c1C(=O)c1ccccc1C2=O (configuration not stated) | > 100 µM | 87.5 µM | > 100 µM | 87.8 µM | > 100 µM | 75.4 µM |  | 28.5 µM |  | > 100 µM |  | 
4 | Fc1sc2c(c1F)C1CCC2C1 (configuration not stated) | > 100 µM | > 100 µM | > 100 µM | > 100 µM | > 100 µM | > 100 µM | > 100 µM |  | > 100 µM | > 100 µM |  | 
5 | CN(C)CC(C)(C)C(=O)/C=C/c1ccccc1 | 29.3 µM | 26.2 µM | 31 µM | 23 µM |  | 29.9 µM | 27.4 µM | 26.7 µM |  | 38.3 µM |  | 
6 | COc1cccc2c1C(=O)c1c(O)c3c(c(O)c1C2=O)C[C@@](O)(C(=O)CO)CC3OC1CC(NCCCCC(OC(C)=O)OC(C)=O)C(O)C(C)O1 (some centres not stated) | 0.00568 µM |  |  | 0.0043 µM |  | > 1 µM |  | 0.00428 µM |  | 0.0143 µM | 0.00368 µM | 
7 | COc1ccc(OC)c([N+](=O)[O-])c1-c1nc2sc(C)cn2c1/C=N/N=C(N)N | 92.7 µM |  | 43.5 µM | > 100 µM | > 100 µM | > 100 µM | > 100 µM |  | > 100 µM | > 100 µM |  | 
8 | CCCCCC(=O)OCC1(CO)C/C(=C/CC(C(C)C)C(C)C)C(=O)O1 (configuration not stated) | > 75 µM | > 75 µM | > 75 µM | 38.2 µM | > 75 µM | > 75 µM | > 75 µM |  | > 75 µM | > 75 µM |  | 
9 | NS(=O)(=O)c1ccc(NS(=O)(=O)c2ccc(NC(=O)N(c3ccccc3)c3ccccc3)cc2)cc1 | > 100 µM | > 100 µM | > 100 µM | > 100 µM | > 100 µM | > 100 µM | > 100 µM |  | > 100 µM | > 100 µM |  | 
10 | CC1CC2OC(=N)C1(C#N)C2(C#N)C#N (configuration not stated) | > 100 µM | 24.8 µM | > 100 µM | 93 µM | 66.3 µM | 44.9 µM | 43.3 µM |  | > 100 µM | 51.1 µM |  | 
11 | Oc1[nH]c2ccccc2c1N=NC(=S)NCc1ccccn1 | 10.5 µM | 13.6 µM | 21.5 µM | 6.56 µM | 3.84 µM | 13.6 µM | 15.1 µM |  | > 23.3 µM | 12.5 µM |  | 
12 | c1ccc(C2C3=C(CCCC3)Nc3nnnn32)cc1 (configuration not stated) |  | > 100 µM |  | > 100 µM | 90.8 µM | > 100 µM | > 100 µM | > 100 µM | > 100 µM |  |  | 
13 | COC1OC2COC(c3ccccc3)OC2C(OC(=S)c2ccccc2)C1O (configuration not stated) | > 100 µM | > 100 µM | > 100 µM | > 100 µM | > 100 µM |  |  |  | 79 µM | 5.82 µM |  | 
14 | CC(=O)c1nc(C#N)c(N)o1 | > 100 µM | > 100 µM | > 100 µM | > 100 µM | > 100 µM | > 100 µM | > 100 µM |  | > 100 µM | > 100 µM |  | 
15 | CCN(CC)CCC1(C(=O)OC)SCCc2ccc(C)cc21 (configuration not stated) | > 100 µM | > 100 µM | > 100 µM | > 100 µM | > 100 µM | > 100 µM | > 100 µM |  | > 100 µM | > 100 µM |  | 
16 | Cc1cc(N)c2cc(NC(=O)CCCCCCCCC(=O)Nc3ccc4nc(C)cc(N)c4c3)ccc2n1 | 56.3 µM | > 100 µM | 97 µM | > 100 µM | > 100 µM | > 100 µM | > 79 µM | > 100 µM |  | > 89 µM |  | 
17 | N#Cc1nc(C(=O)c2ccccc2)oc1N |  |  | > 100 µM |  | > 100 µM | > 100 µM | > 100 µM | > 100 µM |  | > 100 µM |  | 
18 | Cn1c(-c2cccs2)cc(-c2ccsc2)c1-c1ccsc1 | > 100 µM | > 100 µM | > 100 µM | > 100 µM | > 100 µM | > 100 µM | > 100 µM |  | > 100 µM | > 100 µM |  | 
19 | Cc1cnc2[nH]c(-c3sccc3C)cc(=O)c2c1 | 39.3 µM | > 25.5 µM | > 100 µM | > 100 µM | > 100 µM | > 100 µM | > 100 µM |  | > 100 µM | > 100 µM |  | 
20 | COc1ccc(Cn2nc(OCc3ccccc3)c3cc([N+](=O)[O-])ccc32)cc1 | > 100 µM |  | > 100 µM |  | > 100 µM | > 100 µM |  | > 100 µM | > 100 µM |  |  | 
21 | Cc1cc(C)c(N)c(CO)c1 | 1.73 µM and 4.56 µM | > 100 µM | > 100 µM | > 100 µM | > 100 µM | > 100 µM | > 100 µM |  | > 100 µM | > 100 µM |  | 0.236 µM and 1.26 µM
